# Measurements reported in PMC12670405, “Second-Generation AURKA-Targeting PROTACs: Structural Optimization toward in Vivo Degradation in Neuroblastoma” (Journal of Medicinal Chemistry, 2025).
# Assays:
# Assay in all cases: KINOMEscan scanMAX
# Assay type in all cases: binding
# Conditions in all cases: read-out: Percent Control
# PIK3CB = biological target: T1, PIK3CB (Homo sapiens, UniProt P42338)
# T1 construct: purchased Eurofins Discovery (DiscoverX KINOMEscan scanMAX)
# Experimental: (§1) The kinome-wide binding assay was performed by Eurofins Discovery using the scanMAX screening platform. More information can be found on the Eurofins Discovery Web site.
# CDKL3 = biological target: T2, CDKL3 (Homo sapiens, UniProt Q8IVW4)
# T2 construct: purchased Eurofins Discovery (DiscoverX KINOMEscan scanMAX)
# Experimental: as §1
# ZAP70 = biological target: T3, ZAP70 (Homo sapiens, UniProt P43403)
# T3 construct: purchased Eurofins Discovery (DiscoverX KINOMEscan scanMAX)
# Experimental: as §1
# ERK3 = biological target: T4, ERK3 (Homo sapiens, UniProt Q16659)
# T4 construct: purchased Eurofins Discovery (DiscoverX KINOMEscan scanMAX)
# Experimental: as §1
# FGR = biological target: T5, FGR (Homo sapiens, UniProt P09769)
# T5 construct: purchased Eurofins Discovery (DiscoverX KINOMEscan scanMAX)
# Experimental: as §1
# PIKFYVE = biological target: T6, PIKFYVE (Homo sapiens, UniProt Q9Y2I7)
# T6 construct: purchased Eurofins Discovery (DiscoverX KINOMEscan scanMAX)
# Experimental: as §1
# EGFR(E746-A750del) = biological target: T7, EGFR(E746-A750del) (Homo sapiens, UniProt P00533, DEL746-750)
# T7 construct: purchased Eurofins Discovery (DiscoverX KINOMEscan scanMAX)
# Experimental: as §1
# PIM1 = biological target: T8, PIM1 (Homo sapiens, UniProt P11309)
# T8 construct: purchased Eurofins Discovery (DiscoverX KINOMEscan scanMAX)
# Experimental: as §1
# NEK1 = biological target: T9, NEK1 (Homo sapiens, UniProt Q96PY6)
# T9 construct: purchased Eurofins Discovery (DiscoverX KINOMEscan scanMAX)
# Experimental: as §1
# EGFR(L858R,T790M) = biological target: T10, EGFR(L858R,T790M) (Homo sapiens, UniProt P00533, L858R/T790M)
# T10 construct: purchased Eurofins Discovery (DiscoverX KINOMEscan scanMAX)
# Experimental: as §1
# AKT3 = biological target: T11, AKT3 (Homo sapiens, UniProt Q9Y243)
# T11 construct: purchased Eurofins Discovery (DiscoverX KINOMEscan scanMAX)
# Experimental: as §1
# WNK3 = biological target: T12, WNK3 (Homo sapiens, UniProt Q9BYP7)
# T12 construct: purchased Eurofins Discovery (DiscoverX KINOMEscan scanMAX)
# Experimental: as §1
# RIOK2 = biological target: T13, RIOK2 (Homo sapiens, UniProt Q9BVS4)
# T13 construct: purchased Eurofins Discovery (DiscoverX KINOMEscan scanMAX)
# Experimental: as §1
# TGFBR2 = biological target: T14, TGFBR2 (Homo sapiens, UniProt P37173)
# T14 construct: purchased Eurofins Discovery (DiscoverX KINOMEscan scanMAX)
# Experimental: as §1
# PAK6 = biological target: T15, PAK6 (Homo sapiens, UniProt Q9NQU5)
# T15 construct: purchased Eurofins Discovery (DiscoverX KINOMEscan scanMAX)
# Experimental: as §1
# CAMK1 = biological target: T16, CAMK1 (Homo sapiens, UniProt Q14012)
# T16 construct: purchased Eurofins Discovery (DiscoverX KINOMEscan scanMAX)
# Experimental: as §1
# MEK2 = biological target: T17, MEK2 (Homo sapiens, UniProt P36507)
# T17 construct: purchased Eurofins Discovery (DiscoverX KINOMEscan scanMAX)
# Experimental: as §1
# TIE1 = biological target: T18, TIE1 (Homo sapiens, UniProt P35590)
# T18 construct: purchased Eurofins Discovery (DiscoverX KINOMEscan scanMAX)
# Experimental: as §1
# MLK1 = biological target: T19, MLK1 (Homo sapiens, UniProt P80192)
# T19 construct: purchased Eurofins Discovery (DiscoverX KINOMEscan scanMAX)
# Experimental: as §1
# ASK1 = biological target: T20, ASK1 (Homo sapiens, UniProt Q99683)
# T20 construct: purchased Eurofins Discovery (DiscoverX KINOMEscan scanMAX)
# Experimental: as §1
# HASPIN = biological target: T21, HASPIN (Homo sapiens, UniProt Q8TF76)
# T21 construct: purchased Eurofins Discovery (DiscoverX KINOMEscan scanMAX)
# Experimental: as §1
# ULK2 = biological target: T22, ULK2 (Homo sapiens, UniProt Q8IYT8)
# T22 construct: purchased Eurofins Discovery (DiscoverX KINOMEscan scanMAX)
# Experimental: as §1
# TRKC = biological target: T23, TRKC (Homo sapiens, UniProt Q16288)
# T23 construct: purchased Eurofins Discovery (DiscoverX KINOMEscan scanMAX)
# Experimental: as §1
# PDGFRA = biological target: T24, PDGFRA (Homo sapiens, UniProt P16234)
# T24 construct: purchased Eurofins Discovery (DiscoverX KINOMEscan scanMAX)
# Experimental: as §1
# TESK1 = biological target: T25, TESK1 (Homo sapiens, UniProt Q15569)
# T25 construct: purchased Eurofins Discovery (DiscoverX KINOMEscan scanMAX)
# Experimental: as §1
# SgK110 = biological target: T26, SgK110 (Homo sapiens, UniProt P0C264)
# T26 construct: purchased Eurofins Discovery (DiscoverX KINOMEscan scanMAX)
# Experimental: as §1
# STK35 = biological target: T27, STK35 (Homo sapiens, UniProt Q8TDR2)
# T27 construct: purchased Eurofins Discovery (DiscoverX KINOMEscan scanMAX)
# Experimental: as §1
# BTK = biological target: T28, BTK (Homo sapiens, UniProt Q06187)
# T28 construct: purchased Eurofins Discovery (DiscoverX KINOMEscan scanMAX)
# Experimental: as §1
# [1] = biological target: T29, ABL1(M351T)-phosphorylated (Homo sapiens, UniProt P00519, M351T)
# T29 construct: purchased Eurofins Discovery (DiscoverX KINOMEscan scanMAX)
# Experimental: as §1
# WNK1 = biological target: T30, WNK1 (Homo sapiens, UniProt Q9H4A3)
# T30 construct: purchased Eurofins Discovery (DiscoverX KINOMEscan scanMAX)
# Experimental: as §1
# ALK(L1196M) = biological target: T31, ALK(L1196M) (Homo sapiens, UniProt Q9UM73, L1196M)
# T31 construct: purchased Eurofins Discovery (DiscoverX KINOMEscan scanMAX)
# Experimental: as §1
# MAPKAPK2 = biological target: T32, MAPKAPK2 (Homo sapiens, UniProt P49137)
# T32 construct: purchased Eurofins Discovery (DiscoverX KINOMEscan scanMAX)
# Experimental: as §1
# p38-gamma = biological target: T33, p38-gamma (Homo sapiens, UniProt P53778)
# T33 construct: purchased Eurofins Discovery (DiscoverX KINOMEscan scanMAX)
# Experimental: as §1
# MYLK = biological target: T34, MYLK (Homo sapiens, UniProt Q15746)
# T34 construct: purchased Eurofins Discovery (DiscoverX KINOMEscan scanMAX)
# Experimental: as §1
# T16 sequence (Q14012 whole entry): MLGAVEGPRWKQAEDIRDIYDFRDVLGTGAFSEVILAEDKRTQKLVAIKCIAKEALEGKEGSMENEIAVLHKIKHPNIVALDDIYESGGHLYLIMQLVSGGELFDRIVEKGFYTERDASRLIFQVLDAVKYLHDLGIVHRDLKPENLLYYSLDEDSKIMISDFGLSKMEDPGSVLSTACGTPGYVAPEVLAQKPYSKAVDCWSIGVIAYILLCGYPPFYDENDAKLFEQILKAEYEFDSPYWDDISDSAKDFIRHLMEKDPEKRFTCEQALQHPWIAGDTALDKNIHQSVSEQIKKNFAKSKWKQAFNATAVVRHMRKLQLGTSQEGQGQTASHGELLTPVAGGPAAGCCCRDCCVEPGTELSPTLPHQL
# T21 sequence (Q8TF76 whole entry): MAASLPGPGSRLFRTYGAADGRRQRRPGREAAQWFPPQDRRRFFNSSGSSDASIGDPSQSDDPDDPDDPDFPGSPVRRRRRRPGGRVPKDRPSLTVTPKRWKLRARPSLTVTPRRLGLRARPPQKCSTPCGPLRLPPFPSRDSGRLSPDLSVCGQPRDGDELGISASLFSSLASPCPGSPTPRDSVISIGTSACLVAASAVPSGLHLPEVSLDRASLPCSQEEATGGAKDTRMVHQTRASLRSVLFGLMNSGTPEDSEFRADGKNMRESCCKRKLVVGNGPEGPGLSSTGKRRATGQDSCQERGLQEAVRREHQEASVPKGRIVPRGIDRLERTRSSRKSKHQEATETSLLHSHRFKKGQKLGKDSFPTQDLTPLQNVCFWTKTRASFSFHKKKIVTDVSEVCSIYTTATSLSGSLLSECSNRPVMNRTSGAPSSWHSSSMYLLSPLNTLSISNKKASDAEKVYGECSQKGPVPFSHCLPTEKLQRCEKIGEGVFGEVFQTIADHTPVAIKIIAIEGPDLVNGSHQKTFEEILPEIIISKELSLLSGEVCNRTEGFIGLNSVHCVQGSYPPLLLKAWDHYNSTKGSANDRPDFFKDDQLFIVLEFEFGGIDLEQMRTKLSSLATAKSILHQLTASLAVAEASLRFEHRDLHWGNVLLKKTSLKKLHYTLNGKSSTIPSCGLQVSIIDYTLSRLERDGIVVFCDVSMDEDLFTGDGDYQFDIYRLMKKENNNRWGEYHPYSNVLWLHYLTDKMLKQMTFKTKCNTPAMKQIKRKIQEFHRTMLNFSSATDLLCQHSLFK
# T3 sequence (P43403 whole entry): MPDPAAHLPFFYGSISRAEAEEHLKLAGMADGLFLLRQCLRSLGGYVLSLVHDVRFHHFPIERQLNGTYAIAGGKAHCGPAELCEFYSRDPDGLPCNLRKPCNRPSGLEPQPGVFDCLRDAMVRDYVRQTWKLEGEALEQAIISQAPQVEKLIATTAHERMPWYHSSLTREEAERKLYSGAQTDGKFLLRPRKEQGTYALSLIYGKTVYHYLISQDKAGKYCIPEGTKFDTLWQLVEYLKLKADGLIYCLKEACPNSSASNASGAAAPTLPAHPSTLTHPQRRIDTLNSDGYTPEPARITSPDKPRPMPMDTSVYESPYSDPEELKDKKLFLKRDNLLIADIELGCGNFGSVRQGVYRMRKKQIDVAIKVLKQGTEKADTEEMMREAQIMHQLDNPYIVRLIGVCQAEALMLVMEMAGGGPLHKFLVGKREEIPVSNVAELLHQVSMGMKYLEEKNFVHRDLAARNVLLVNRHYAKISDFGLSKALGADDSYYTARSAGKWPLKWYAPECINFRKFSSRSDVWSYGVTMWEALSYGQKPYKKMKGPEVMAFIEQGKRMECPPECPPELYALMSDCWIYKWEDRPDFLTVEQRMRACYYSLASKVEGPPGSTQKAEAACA
# T5 sequence (P09769 whole entry): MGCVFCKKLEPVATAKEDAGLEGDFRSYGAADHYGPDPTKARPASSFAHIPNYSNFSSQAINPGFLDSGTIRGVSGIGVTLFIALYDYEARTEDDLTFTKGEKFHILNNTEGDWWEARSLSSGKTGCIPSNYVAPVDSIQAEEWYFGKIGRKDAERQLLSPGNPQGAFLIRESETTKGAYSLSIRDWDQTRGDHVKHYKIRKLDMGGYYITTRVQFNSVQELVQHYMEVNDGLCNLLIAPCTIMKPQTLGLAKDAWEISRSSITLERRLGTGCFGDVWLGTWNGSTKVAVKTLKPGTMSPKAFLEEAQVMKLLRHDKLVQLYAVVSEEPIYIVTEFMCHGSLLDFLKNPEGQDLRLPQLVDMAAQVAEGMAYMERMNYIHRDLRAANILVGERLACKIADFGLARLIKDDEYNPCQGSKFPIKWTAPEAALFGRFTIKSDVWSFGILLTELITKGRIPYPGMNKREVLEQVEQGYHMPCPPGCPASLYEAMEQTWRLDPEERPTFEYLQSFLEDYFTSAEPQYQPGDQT
# T12 sequence (Q9BYP7 whole entry): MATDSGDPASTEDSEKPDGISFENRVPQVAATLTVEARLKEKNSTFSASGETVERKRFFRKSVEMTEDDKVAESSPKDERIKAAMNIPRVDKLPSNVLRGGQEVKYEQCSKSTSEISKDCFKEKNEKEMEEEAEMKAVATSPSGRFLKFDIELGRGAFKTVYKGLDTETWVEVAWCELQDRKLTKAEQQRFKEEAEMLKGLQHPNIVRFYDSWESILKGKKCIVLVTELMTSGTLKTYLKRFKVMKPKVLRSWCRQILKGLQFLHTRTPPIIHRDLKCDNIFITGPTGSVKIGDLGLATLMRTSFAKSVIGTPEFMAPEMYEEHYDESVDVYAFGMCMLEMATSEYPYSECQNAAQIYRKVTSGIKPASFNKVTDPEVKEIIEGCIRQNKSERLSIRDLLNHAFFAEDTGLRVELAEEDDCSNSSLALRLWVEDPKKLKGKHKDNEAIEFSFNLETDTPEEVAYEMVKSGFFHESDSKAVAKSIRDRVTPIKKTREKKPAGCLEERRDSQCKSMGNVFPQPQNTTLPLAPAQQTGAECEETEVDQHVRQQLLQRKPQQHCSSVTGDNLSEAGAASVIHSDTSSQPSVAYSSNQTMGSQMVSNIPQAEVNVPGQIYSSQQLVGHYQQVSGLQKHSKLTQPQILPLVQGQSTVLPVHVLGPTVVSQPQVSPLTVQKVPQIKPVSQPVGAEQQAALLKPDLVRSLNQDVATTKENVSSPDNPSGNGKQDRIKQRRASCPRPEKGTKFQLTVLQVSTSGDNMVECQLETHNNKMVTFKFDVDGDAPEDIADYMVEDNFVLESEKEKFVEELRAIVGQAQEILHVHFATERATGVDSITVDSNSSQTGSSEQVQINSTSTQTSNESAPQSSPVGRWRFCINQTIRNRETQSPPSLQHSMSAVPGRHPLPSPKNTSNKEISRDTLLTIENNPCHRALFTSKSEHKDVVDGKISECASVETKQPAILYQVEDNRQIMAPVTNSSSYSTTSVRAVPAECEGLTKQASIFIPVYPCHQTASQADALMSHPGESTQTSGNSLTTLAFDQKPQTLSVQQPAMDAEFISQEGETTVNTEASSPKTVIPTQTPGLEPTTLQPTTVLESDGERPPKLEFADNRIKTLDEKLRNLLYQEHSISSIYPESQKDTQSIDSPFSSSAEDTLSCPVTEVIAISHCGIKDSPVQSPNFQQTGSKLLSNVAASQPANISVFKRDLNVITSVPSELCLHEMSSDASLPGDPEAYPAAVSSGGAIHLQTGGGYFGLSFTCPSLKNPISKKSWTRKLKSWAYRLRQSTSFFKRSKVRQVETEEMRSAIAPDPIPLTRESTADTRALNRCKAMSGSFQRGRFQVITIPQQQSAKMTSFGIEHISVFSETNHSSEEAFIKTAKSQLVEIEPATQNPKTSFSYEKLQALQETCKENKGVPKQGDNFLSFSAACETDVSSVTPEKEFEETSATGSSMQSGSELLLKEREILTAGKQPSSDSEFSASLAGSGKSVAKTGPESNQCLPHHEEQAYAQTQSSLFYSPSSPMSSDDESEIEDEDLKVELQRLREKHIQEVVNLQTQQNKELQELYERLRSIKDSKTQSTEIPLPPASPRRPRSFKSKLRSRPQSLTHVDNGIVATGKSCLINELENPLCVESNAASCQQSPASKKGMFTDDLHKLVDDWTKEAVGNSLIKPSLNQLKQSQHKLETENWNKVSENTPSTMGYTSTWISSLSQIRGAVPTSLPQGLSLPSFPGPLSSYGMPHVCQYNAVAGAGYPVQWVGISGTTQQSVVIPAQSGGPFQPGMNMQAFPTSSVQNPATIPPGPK
# T11 sequence (Q9Y243 whole entry): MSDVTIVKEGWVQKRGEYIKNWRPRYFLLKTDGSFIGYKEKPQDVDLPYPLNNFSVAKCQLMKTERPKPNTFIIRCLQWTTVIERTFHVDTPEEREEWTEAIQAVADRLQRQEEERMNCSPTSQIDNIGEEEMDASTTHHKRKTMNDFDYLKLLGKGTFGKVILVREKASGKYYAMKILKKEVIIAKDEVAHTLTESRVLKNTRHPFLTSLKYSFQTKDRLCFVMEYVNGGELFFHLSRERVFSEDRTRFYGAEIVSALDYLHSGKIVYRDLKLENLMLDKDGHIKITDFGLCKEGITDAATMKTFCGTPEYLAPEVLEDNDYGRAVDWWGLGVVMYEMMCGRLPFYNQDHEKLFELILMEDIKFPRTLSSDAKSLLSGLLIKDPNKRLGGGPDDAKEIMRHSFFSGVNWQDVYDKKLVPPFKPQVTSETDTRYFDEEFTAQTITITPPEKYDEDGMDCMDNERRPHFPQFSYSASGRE
# T32 sequence (P49137 whole entry): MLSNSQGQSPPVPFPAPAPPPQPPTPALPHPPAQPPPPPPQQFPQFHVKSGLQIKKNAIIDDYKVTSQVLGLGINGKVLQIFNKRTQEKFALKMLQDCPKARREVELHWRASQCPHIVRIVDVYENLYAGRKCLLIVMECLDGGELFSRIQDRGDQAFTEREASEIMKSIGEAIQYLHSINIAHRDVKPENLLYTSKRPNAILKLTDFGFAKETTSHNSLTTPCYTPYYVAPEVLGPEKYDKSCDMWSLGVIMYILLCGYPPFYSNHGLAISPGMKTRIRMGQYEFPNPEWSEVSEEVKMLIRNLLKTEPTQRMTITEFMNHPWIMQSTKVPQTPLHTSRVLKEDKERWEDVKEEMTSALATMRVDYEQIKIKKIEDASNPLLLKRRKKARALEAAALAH
smiles,measurement,setting,value
Cc1cc(Nc2ccc(F)c(CC3(C(=O)N4CCC(F)(CN5CCN(c6ccc(N7CCC(=O)NC7=O)cn6)CC5)CC4)CCN(Cc4cccc(Cl)c4F)CC3)n2)n[nH]1 [SK5527],remaining binding at 0.1 µM,PIK3CB; 100 nM,78%
same,remaining binding at 1 µM,PIK3CB; 1000 nM,95%
same,remaining binding at 0.1 µM,CDKL3; 100 nM,100%
same,remaining binding at 1 µM,CDKL3; 1000 nM,83%
same,remaining binding at 0.1 µM,ZAP70; 100 nM,97%
same,remaining binding at 1 µM,ZAP70; 1000 nM,100%
same,remaining binding at 0.1 µM,ERK3; 100 nM,100%
same,remaining binding at 1 µM,ERK3; 1000 nM,94%
same,remaining binding at 0.1 µM,FGR; 100 nM,89%
same,remaining binding at 1 µM,FGR; 1000 nM,61%
same,remaining binding at 0.1 µM,PIKFYVE; 100 nM,100%
same,remaining binding at 1 µM,PIKFYVE; 1000 nM,100%
same,remaining binding at 0.1 µM,EGFR(E746-A750del); 100 nM,78%
same,remaining binding at 1 µM,EGFR(E746-A750del); 1000 nM,70%
same,remaining binding at 0.1 µM,PIM1; 100 nM,100%
same,remaining binding at 1 µM,PIM1; 1000 nM,99%
same,remaining binding at 0.1 µM,NEK1; 100 nM,100%
same,remaining binding at 1 µM,NEK1; 1000 nM,86%
same,remaining binding at 0.1 µM,"EGFR(L858R,T790M); 100 nM",82%
same,remaining binding at 1 µM,"EGFR(L858R,T790M); 1000 nM",87%
same,remaining binding at 0.1 µM,AKT3; 100 nM,86%
same,remaining binding at 1 µM,AKT3; 1000 nM,91%
same,remaining binding at 0.1 µM,WNK3; 100 nM,82%
same,remaining binding at 1 µM,WNK3; 1000 nM,71%
same,remaining binding at 0.1 µM,RIOK2; 100 nM,93%
same,remaining binding at 1 µM,RIOK2; 1000 nM,64%
same,remaining binding at 0.1 µM,TGFBR2; 100 nM,100%
same,remaining binding at 1 µM,TGFBR2; 1000 nM,100%
same,remaining binding at 0.1 µM,PAK6; 100 nM,100%
same,remaining binding at 1 µM,PAK6; 1000 nM,100%
same,remaining binding at 0.1 µM,CAMK1; 100 nM,100%
same,remaining binding at 1 µM,CAMK1; 1000 nM,98%
same,remaining binding at 0.1 µM,MEK2; 100 nM,80%
same,remaining binding at 1 µM,MEK2; 1000 nM,81%
same,remaining binding at 0.1 µM,TIE1; 100 nM,89%
same,remaining binding at 1 µM,TIE1; 1000 nM,68%
same,remaining binding at 0.1 µM,MLK1; 100 nM,94%
same,remaining binding at 1 µM,MLK1; 1000 nM,91%
same,remaining binding at 0.1 µM,ASK1; 100 nM,91%
same,remaining binding at 1 µM,ASK1; 1000 nM,92%
same,remaining binding at 0.1 µM,HASPIN; 100 nM,79%
same,remaining binding at 1 µM,HASPIN; 1000 nM,70%
same,remaining binding at 0.1 µM,ULK2; 100 nM,89%
same,remaining binding at 1 µM,ULK2; 1000 nM,78%
same,remaining binding at 0.1 µM,TRKC; 100 nM,97%
same,remaining binding at 1 µM,TRKC; 1000 nM,76%
same,remaining binding at 0.1 µM,PDGFRA; 100 nM,92%
same,remaining binding at 1 µM,PDGFRA; 1000 nM,84%
same,remaining binding at 0.1 µM,TESK1; 100 nM,66%
same,remaining binding at 1 µM,TESK1; 1000 nM,83%
same,remaining binding at 0.1 µM,SgK110; 100 nM,100%
same,remaining binding at 1 µM,SgK110; 1000 nM,89%
same,remaining binding at 0.1 µM,STK35; 100 nM,99%
same,remaining binding at 1 µM,STK35; 1000 nM,80%
same,remaining binding at 0.1 µM,BTK; 100 nM,88%
same,remaining binding at 1 µM,BTK; 1000 nM,80%
same,remaining binding at 0.1 µM,[1]; 100 nM,70%
same,remaining binding at 1 µM,[1]; 1000 nM,34%
same,remaining binding at 0.1 µM,WNK1; 100 nM,73%
same,remaining binding at 1 µM,WNK1; 1000 nM,77%
same,remaining binding at 0.1 µM,ALK(L1196M); 100 nM,91%
same,remaining binding at 1 µM,ALK(L1196M); 1000 nM,100%
same,remaining binding at 0.1 µM,MAPKAPK2; 100 nM,84%
same,remaining binding at 1 µM,MAPKAPK2; 1000 nM,100%
same,remaining binding at 0.1 µM,p38-gamma; 100 nM,97%
same,remaining binding at 1 µM,p38-gamma; 1000 nM,87%
same,remaining binding at 0.1 µM,MYLK; 100 nM,76%
same,remaining binding at 1 µM,MYLK; 1000 nM,47%
